Experimental data reported in patent US11273172B2, “Synergistic combination of oligonucleotides and chemotherapeutic for treating cancer” (THE BOARD OF TRUSTEES OF THE UNIVERSITY OF ILLINOIS, priority 2017, dated 2022).
“And” between values parts separate entries of the source, which are not always exact repeats. Equal values may be shown once.

Assays:
Assay in all cases: MTT cell death assay, chemotherapeutic with and without MADD siRNA knockdown
Type in all cases: cell-based
[1] = test system: HTH7 thyroid cancer cells; details: siRNA 10 nM
Procedure: Cells are cultured and maintained at 37° C. in a humidified atmosphere containing 5% CO2 as described above. […] After 12-18 hours (Day 1), cells are transfected with Scramble or MADD siRNA at 10 nM concentration. The sequences of siRNAs (double stranded) used are:
(§1) On Day 4, when cells are properly adhered and retained their shape in 96-well plates, drugs are added. All drugs are diluted in complete media on the same day prior to the addition to the cells. In untreated cells, media is replaced with complete media. Two hundred μl volume of media (with or without drugs) is used for the drug treatment assay. Plates are incubated 24 hours, 48 hours and 72 hours at 37° C. in humidified CO2 incubator.
An MTT assay is performed to determine relative survival after drug treatment as described above. MTT (3-[4,5-Dimethylthiazol-2-yl]-2,5-diphenyltetrazolium bromide; Thiazolyl blue) is purchased from Sigma Aldrich (Cat number: M5655). […] Ten μl of MTT solution is added per well of 96-well plate. Plates are incubated for 2 hours at 37° C. in the humidified CO2 incubator. After 2 hours, media is aspirated using vacuum inside the biosafety hood. Purple colored crystals formed in viable cells are dissolved by adding 100 μl of Dimethyl sulfoxide (Thermo Fisher Scientific; Cat number D128-500) Plates are kept on shaker for 10 minutes for compete dissolution of crystals and absorbance is recorded at 595 nm using Bio-Rad iMark microplate reader. Data is analyzed in MICROSOFT EXCEL® software. Relative survival is calculated with respect to absorbance of control (untreated cells) to determine the effect of transfection as well as combination treatment.
(§2) Each data set takes into account any spontaneous cell death which is observed upon transfection with Scramble siRNA; the amount of spontaneous cell death from Scramble siRNA transfection (baseline) is subtracted from the amount of cell death observed in each siRNA transfection reaction to yield a Net Percent (Net %) cell death after accounting for Scrambled siRNA-induced cell death.

[2] = test system: N87 gastric carcinoma cells; details: Doxorubicin 0.8 μM, siRNA 10 nM, 72 hours post Doxorubicin treatment
Procedure: (§3) Cells are cultured and maintained at 37° C. in a humidified atmosphere containing 5% CO2 as described above. On Day 0, Cells are seeded in […] tissue culture dishes (Corning; Cat Number: 353003) to attain 60-70% confluence. In parallel, cells are also seeded in one 96-well plate (Corning; Cat number: 353072) for analysis of survival before reseeding. After 12-18 hours (Day 1), cells are transfected with Scramble or MADD siRNA at 10 nM concentration. The sequences of siRNAs (double stranded) used are:
as §1, with “added. Doxorubicin was added at a working concentration of 5.0 nM, 9.375 nM, 0.075 μM, 0.25 μM, 0.5 μM, and 0.8 μM.” for “added.”
(§4) An MTT assay is performed to determine relative survival after drug treatment as described above. MTT (3-[4,5-Dimethylthiazol-2-yl]-2,5-diphenyltetrazolium bromide; Thiazolyl blue) is purchased from Sigma Aldrich (Cat number: M5655). MTT is dissolved in sterile DPBS at the concentration of 5 mg/ml and filtered through […] syringe filter (Corning; Cat number: 431220). Ten μl of MTT solution is added per well of 96-well plate. Plates are incubated for 2 hours at 37° C. in the humidified CO2 incubator. After 2 hours, media is aspirated using vacuum inside the biosafety hood. Purple colored crystals formed in viable cells are dissolved by adding 100 μl of Dimethyl sulfoxide (Thermo Fisher Scientific; Cat number D128-500). Plates are kept on shaker for 10 minutes for compete dissolution of crystals and absorbance is recorded at 595 nm using Bio-Rad iMark microplate reader. Data is analyzed in MICROSOFT EXCEL® software. Relative survival is calculated with respect to absorbance of control (untreated cells) to determine the effect of transfection as well as combination treatment.
as §2

[3] = test system: JIMT1 breast cancer cells; details: Doxorubicin 0.075 μM, siRNA 10 nM, 24 hours post Doxorubicin treatment
Procedure: as §3
as §1, with “added. Doxorubicin was added at a working concentration of 5.0 nM, 9.375 nM, 0.075 μM, 0.25 μM, 0.5 μM, and 0.8 μM.” for “added.”
as §4, §2

[4] = Cisplatin 1.25 μM, 72 hours post Cisplatin treatment
[5] = Cisplatin 5 μM, 24 hours post Cisplatin treatment

Substance | Net % cell death after accounting for Scrambled siRNA [1, 4] | Observed % Cell death [1, 4] | Net % cell death after accounting for Scrambled siRNA [1, 5] | Observed % Cell death [1, 5] | Observed % Cell death [2] | Observed % Cell death [3] | Net % cell death after accounting for Scrambled siRNA [2] | Net % cell death after accounting for Scrambled siRNA [3]
MADD siRNA: siRNA targeting exon 13L of the MADD splice variant of the IG20 gene; SEQ ID NO: 4, 5′-GAUUGUCAUAGAUUCGCCGTT-3′ (chemistry not given here) | 54% and 54 − 0 = 54% | 54% | 6% and 6 − 0 = 6% | 6% | 21% | 59% | – | –
Scrambled siRNA: non-specific Scramble siRNA, negative control; SEQ ID NO: 5, 5′-UUGCUAAGCGUCGGUCAAUTT-3′ (chemistry not given here) | 0 − 0 = 0% | 0% | 0 − 0 = 0% | 0% | 14% | 33% | 14 − 14 = 0% | 33 − 33 = 0%
